Read-outs that look alike come from different tables or passages of the source.
Columns and labels:
[1] = test system: chloroquine-resistant (W2) strain of P. falciparum; assay: In vitro anti-malarial activity assay (plasmodial LDH activity), W2 clone; type: cell-based; details: Plasmodium falciparum, read-out: P. falciparum (W2 Clone) IC50
Experimental: (§1) In vitro anti-malarial activity of the representative compounds was determined against chloroquine sensitive (D6) and chloroquine-resistant (W2) strains of P. falciparum.
(§2) The anti-malarial activity was determined by measuring plasmodial LDH activity as described earlier (Jain, M.; Khan, S. I.; Tekwani, B. L.; Jacob, M. R.; Singh, S.; Singh, P. P.; Jain, R. Synthesis, anti-malarial, antileishmanial, and antimicrobial activities of some 8-quinolinamine analogues. Bioorg. Med. Chem. 2005, 13, 4458-4466). A suspension of red blood cells infected with D6 or W2 strains of P. falciparum (200 with 2% parasitemia and 2% hematocrit in RPMI 1640 medium supplemented with 10% human serum and 60 µg/mL Amikacin) was added to the wells of a 96-well plate containing 10 μL of serially diluted test samples. The plate was flushed with a gas mixture of 90% N2, 5% O2, and 5% CO2 and incubated at 37° C. for 72 h in a modular incubation chamber (Billups-Rothenberg, Calif.). Parasitic LDH activity was determined by using Malstat™ reagent (Flow Inc., Portland, Oreg.) according to the procedure of Makler and Hinrichs (M. T. Makler and D. J. Hinrichs, Measurement of the lactate dehydrogenase activity of Plasmodium falciparum as an assessment of parasitemia. J. Am. J. Trop. Med. Hyg. 1993, 48(2):205-210). Briefly, 20 μl, of the incubation mixture was mixed with 100 μL of the Malstat™ reagent and incubated at room temperature for 30 min Twenty microliters of a 1:1 mixture of NBT/PES (Sigma, St. Louis, Mo.) was then added and the plate was further incubated in the dark for 1 h. The reaction was then stopped by the addition of 100 μL of a 5% acetic acid solution. The plate was read at 650 nm. Artemisinin and chloroquine were included in each assay as the drug controls. IC50 values were computed from the dose-response curves. To determine the selectivity index of anti-malarial activity of compounds, their cytotoxicity in vitro to mammalian cells was also determined. The assay was performed in 96-well tissue culture-treated plates as described earlier (J. Mustafa, S. I. Khan, G. Ma, L. A. Walker and I. A. Khan, Synthesis and Anticancer Activities of Fatty Acid Analogs of Podophyllotoxin. Lipids. 2004, 39(2):167-172). Vero cells (monkey kidney fibroblasts) were seeded to the wells of 96-well plate at a density of 25,000 cells/well and incubated for 24 h. Samples at different concentrations were added and plates were again incubated for 48 h. The number of viable cells was determined by Neutral Red assay. IC50 values were obtained from dose-response curves. Doxorubicin was used as a positive control.

[2] = biological target: T1, Falcipain-2 protease (FP-2) (Plasmodium falciparum, UniProt Q8I6U4); assay: Falcipain-2 protease inhibition assay (fluorescence reaction rate); type: biochemical; details: for inhibition at 10 µM: 10 μM compound, pH 5.5; for IC50: pH 5.5, sigmoidal fit, read-out: IC50 against falcipain-2
T1 construct: The falcipain-2 fragment was amplified by the polymerase chain reaction (PCR); His6 (N-terminal MRGS-His6 supplied by the pQE-30 vector; own knowledge of the vector, consistent with the Ni2+-NTA purification) (N); made in house; host or cells: E. coli M15
T1 sequence (Q8I6U4 244-484): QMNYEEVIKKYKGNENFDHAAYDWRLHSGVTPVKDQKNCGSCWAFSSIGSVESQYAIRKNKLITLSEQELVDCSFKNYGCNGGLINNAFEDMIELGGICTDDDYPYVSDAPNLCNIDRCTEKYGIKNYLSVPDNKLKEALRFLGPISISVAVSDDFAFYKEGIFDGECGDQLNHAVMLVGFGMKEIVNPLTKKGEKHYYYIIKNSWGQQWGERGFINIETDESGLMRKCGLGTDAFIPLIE
Experimental: (1) Expression and Purification of Falcipain-2 and Refolding of FP-2 Inclusion Bodies Protein
(2) The Determination of the Invention Compounds' Inhibitory Activity Against FP-2
FP-2 protein and test compounds dissolved in DMSO (prepared from EXAMPLES 1-4) were added to 197 μL, buffer, containing 100 mM NaOAc, 10 mM DTT, pH 5.5 (final concentration 10 μg/mL). The test compound were Stenopalustroside A, Stenopalustroside D, Tiliroside, kaempferol 3-O-β-(6″-caffeoylglucoside) and kaempferol 3-(2,4-di-E-p-coumaroyl-rhamnoside), respectively, which final concentration were 10 μM and 0 μM (as negative control). These compounds were incubated for […] and employed MD SpectraMax M5 Microplate Reader to continuous detect the RFU for 15 min, at excitation 355 nm and emission 460 nm Calculate the reaction rate Km, and obtain percentage inhibitory rate of the test compound at 10 μM by the following equation,
The equation is: (Kmof control group−Kmof experimental group)/Kmof control group×100%
Select […] compounds with over 50% inhibitory rate to detect IC50, and utilize the compound solutions prepared from EXAMPLE 1 to EXAMPLE 4, Stenopalustroside A, tiliroside kaempferol 3-O-β-(6″-caffeoylglucoside), and the experimental methods and system followed as EXAMPLE 6. According to FP-2 activity reaction rate Km with compounds at different concentrations, we can calculate the inhibitory rate of compounds against FP-2 at different concentration. The IC50 value was fitted with utilizing the Sigmoidal Equation by Origin software.

[3] = test system: Plasmodium berghei (chloroquine sensitive strain); assay: In vivo anti-malarial activity, 4-day suppressive test in infected mice; details: Swiss albino mice; for Day 4 % Suppression / Day 5 % Suppression / Day 6 % Suppression: intragastric
Experimental: Tests were performed in a 4-day suppressive standard test using the methods of David, Thurston and Peters (David, A. F., Philip, J. R., Simon, L. C., Reto B., and Solomon N. Antimalarial drug discovery: Efficacy models for compound screening. Nature Reviews. 2004; 3: 509-520). The plasmodium species, that is most widely employed in rodent malaria parasite-Plasmodium berghei (chloroquine sensitive strain), was used to infect Swiss albino mice for a fourday suppressive test. The P. berghei was subsequently maintained in the laboratory by serial blood passage from mouse to mouse. For the study, a donor mouse with a rising parasitemia of 20% was sacrificed and its blood was collected in a slightly heparinized syringe from the auxiliary vessels. The blood was diluted with Trisodium Citrate (TC) medium so that each 0.2 ml contained approximately 107 infected red cells. Each animal received inoculums of about […], which is expected to produce a steadily rising infection in mice.
Male Swiss albino mice were used. The mice were allowed to acclimatize to the laboratory environment under a controlled temperature of 20° C. and at optimum humidity for at least three days before being subjected to the experiments. All of the mice were divided into groups of six, and infected with malaria parasites.
The infection of the recipient mice was initiated by needle passage of the above mentioned parasite preparation, from the donor to healthy test animals via an intraperitoneal route. Therefore, P. berghei infected red blood cells were intraperitoneally injected into the mice from the blood diluted with TC medium so that each 0.2 ml had approximately 106-107 infected red cells (parasite per kg of body weight). Each mouse was infected with single inoculums of 0.2 ml blood.
The 4-day procedures were started on Mondays while blood smears for parasitemia were collected on Fridays. The infected mice were weighed, randomly divided into treatment, vehicle and standard drug groups. […] The compounds were administered through intra gastric route using the stomach tube to ensure the safe ingestion of the compounds and the vehicle.
Thin smears of blood films were obtained from the peripheral blood on the tail from each mouse on day four after infection. The smears were placed on microscopic slides, fixed with methanol and stained with Gemsa at pH 7.2, for parasitemia. […] The number of parasitized erythrocytes in each of the 10-50 such fields were counted three times and the average was calculated to give the Parasitemia of each individual animal. Percentage of suppression was calculated by using the following formula. % Suppression=(Parasitemia in negative control−Parasitemia in study group)/Parasitemia in negative control

[4] = test system: chloroquine sensitive (D6) strain of P. falciparum; assay: In vitro anti-malarial activity assay (plasmodial LDH activity), D6 clone; type: cell-based; details: Plasmodium falciparum, read-out: P. falciparum (D6 Clone) IC50
Experimental: as §1, §2

[5] = W2, 72 h incubation, LDH readout
[6] = D6, 72 h incubation, LDH readout

Structure (SMILES) | IC50 [1, 5] [µM] | inhibition at 10 µM [2] [%] | IC50 [4, 6] [µM] | IC50 [2] [µM] | Day 4 % Suppression ([3]; 10 mg/kg daily for 4 days) [%] | Day 5 % Suppression ([3]; 10 mg/kg daily for 4 days) [%] | Day 6 % Suppression ([3]; 10 mg/kg daily for 4 days) [%] | Day 4 % Suppression ([3]; 50 mg/kg daily for 4 days) [%] | Day 5 % Suppression ([3]; 50 mg/kg daily for 4 days) [%] | Day 6 % Suppression ([3]; 50 mg/kg daily for 4 days) [%] | Day 4 % Suppression ([3]; 100 mg/kg daily for 4 days) [%] | Day 5 % Suppression ([3]; 100 mg/kg daily for 4 days) [%] | Day 6 % Suppression ([3]; 100 mg/kg daily for 4 days) [%] | Day 4 % Suppression ([3]; 200 mg/kg daily for 4 days) [%] | Day 5 % Suppression ([3]; 200 mg/kg daily for 4 days) [%] | Day 6 % Suppression ([3]; 200 mg/kg daily for 4 days) [%] | Day 5 % Suppression ([3]; 400 mg/kg daily for 4 days) [%] | other results
O=C(/C=C/c1ccc(O)c(O)c1)OCC1O[C@@H](Oc2c(-c3ccc(O)cc3)oc3cc(O)cc(O)c3c2=O)C(O)C(O)[C@@H]1O (stereo partly drawn) [kaempferol 3-O-β-(6″-caffeoylglucoside)] | 91.3 | 53 | 55.8 | 13.5 | 20.6 | 27.2 | 37.8 | 52.1 | 54.5 | 45.9 | 13.0 | 15.1 | 10.8 | 4.3 | 9.0 | 5.4 | 6.0 | 
C[C@@H]1CC[C@H]2[C@@H](C)C(=O)O[C@@H]3O[C@@]4(C)CC[C@@H]1[C@]32OO4 [Artemisinine, reference compound] | < 26.4 |  | < 26.4 |  |  |  |  |  |  |  |  |  |  |  |  |  |  | 
CCN(CC)CCCC(C)Nc1ccnc2cc(Cl)ccc12 (stereo not shown) [Chloroquine, reference compound] |  |  |  |  | 100 | 100 | 100 |  |  |  |  |  |  |  |  |  |  | IC50 ([1]; W2, 72 h): 160 µM; IC50 ([4]; D6, 72 h): < 26.4 µM

Further lines, with some results ahead:

IC50 [1, 5] [µM] | inhibition at 10 µM [2] [%] | IC50 [4, 6] [µM] | IC50 [2] [µM] | Structure (SMILES) | Day 4 % Suppression ([3]; 10 mg/kg daily for 4 days) [%] | Day 5 % Suppression ([3]; 10 mg/kg daily for 4 days) [%] | Day 6 % Suppression ([3]; 10 mg/kg daily for 4 days) [%] | Day 4 % Suppression ([3]; 50 mg/kg daily for 4 days) [%] | Day 5 % Suppression ([3]; 50 mg/kg daily for 4 days) [%] | Day 6 % Suppression ([3]; 50 mg/kg daily for 4 days) [%] | Day 4 % Suppression ([3]; 100 mg/kg daily for 4 days) [%] | Day 5 % Suppression ([3]; 100 mg/kg daily for 4 days) [%] | Day 6 % Suppression ([3]; 100 mg/kg daily for 4 days) [%] | Day 4 % Suppression ([3]; 200 mg/kg daily for 4 days) [%] | Day 5 % Suppression ([3]; 200 mg/kg daily for 4 days) [%] | Day 6 % Suppression ([3]; 200 mg/kg daily for 4 days) [%] | Day 5 % Suppression ([3]; 400 mg/kg daily for 4 days) [%] | other results
165 | 39.4 | 68.4 |  | O=C(/C=C\c1ccc(O)cc1)OCC1O[C@@H](Oc2c(-c3ccc(O)cc3)oc3cc(O)cc(O)c3c2=O)C(O)[C@H](OC(=O)/C=C/c2ccc(O)cc2)[C@@H]1O (stereo partly shown) [Stenopalustroside D] | 30.4 | 51.5 | 32.4 | 60.8 | 63.6 | 58.3 | 56.5 | 60.6 | 45.9 | 43.4 | 42.4 | 37.8 | 24.2 | Day 4 % Suppression ([3]; 400 mg/kg daily for 4 days): 8.6%; Day 6 % Suppression ([3]; 400 mg/kg daily for 4 days): 13.5%; maximum suppression ratio ([3]; maximum over doses and days): 60%
98.6 | 53 | 32.8 | 1.45 | O=C(/C=C\c1ccc(O)cc1)OCC1O[C@@H](Oc2c(-c3ccc(O)cc3)oc3cc(O)cc(O)c3c2=O)C(O)[C@H](OC(=O)/C=C\c2ccc(O)cc2)[C@@H]1O (stereo partly shown) [Stenopalustroside A] |  |  |  |  |  |  |  |  |  | 34.7 | 33.3 | 18.9 |  | 
147 | 49.4 | 45.1 |  | CC1O[C@@H](Oc2c(-c3ccc(O)cc3)oc3cc(O)cc(O)c3c2=O)C(OC(=O)/C=C/c2ccc(O)cc2)C(O)[C@H]1OC(=O)/C=C/c1ccc(O)cc1 (stereo partly shown) [kaempferol 3-(2,4-di-E-p-coumaroyl-rhamnoside)] |  |  |  | 34.7 | 24.2 | 29.7 | 13.0 | 21.2 | 24.3 |  | 9.0 | 5.4 |  | 
